In patent US9328130B2, “Method of treating organism by biologically active compounds specifically delivered into mitochondria, pharmaceutical composition required for the use of the method and a compound applicable for this purpose” (MITOTECH S.A., priority 2005, dated 2016):

Key:
[1] = Oxidation of quinols by superoxide-anion radicals generated in xanthine oxidase/hypoxanthine system; assay type: biochemical
Excerpt: In order to compare antioxidant activity of the reduced forms, we measured the oxidation rate of quinols by superoxide-anion radicals generated in xanthine oxidase/hypoxanthine system.

human lung fibroblasts = experiment: Protection from apoptosis caused by H2O2; assay type: cell-based; details: preincubation with 20 nM for 6 days
Method: Normal diploid fibroblasts from human skin and lung, human uterus carcinoma cells (HeLa cells) and human lymphoma cells (U 937 strain) were used in this experiment. Cells were cultivated in standard media (DMEM or RPMI) in the presence of 10% fetal serum at 37° C. and 5% CO2. Experiments were carried out on the cultured cells grown to 30-50% confluency. H2O2 was added once and the cells were analyzed after 18-24 h of incubation. Apoptotic death was monitored by condensation of chromatin and nucleus fragmentation after staining the cells with Hoechst 33342 (1 μg/ml, 15 min). 300-500 cells were taken into account from each preparation and the final results are the average of 3-5 independent experiments. Necrosis was determined by staining of nuclei with propidium iodide (2 μg/ml, 5 min). […] It was confirmed that apoptosis in all cases was accompanied with decrease of mitochondrial membrane potential, release of cytochrome c from mitochondria into cytoplasm and activation of caspases.

[2] = tested on: coronary arteries of the isolated hearts of rats; experiment: Isolated perfused rat heart, perfusion pressure during H2O2 introduction; assay type: in vivo
Method: It is known that reactive oxygen species (ROS) have regulatory or toxic effects on a cardiac muscle depending on their concentrations. When studying SkQ1 compound its ability to modulate ROS action has been found. Experiments have been carried out in the isolated hearts of rats which were given SkQ1 intravenously or with nutrition (50 μg/kg). The heart was isolated 2 hours after intravenous introduction of the compound, or after 2-week nutritional supplementation. The heart was perfused retrogradely according to a standard procedure by Krebs solution with a constant rate, and perfusion pressure (PP) characterized the tonus of coronary arteries. A spontaneous heart rate and isovolumic pressure in a left ventricular latex balloon were also recorded. These parameters were monitored at 40-minute introduction of 150 mcM H2O2, a standard ROS generator.

Hela cells [3] = experiment: Morphology of HeLa cells; assay type: cell-based, human
Method: (§1) Normal fibroblasts from the human skin and lung and HeLa cells were cultivated at low cell density (20-30% confluency). Morphometric measurements were carried out for cell area, dispersion and elongation. Cytoskeleton structures were analyzed by staining the fixed cell preparations with rhodamine falloidin (actin filaments), antibodies against tubulin (microtubules) and vinculin (surface contacts). Mobility of the cells was examined with the help of microvideo camera.

[4] = tested on: respiratory chain of rat liver mitochondria; assay type: biochemical
Method: FIG. 5 describes the oxidation of quinols of “MitoQ” and “SkQ1” by respiratory chain of rat liver mitochondria energized with succinate (5 mM) in the presence of 2 μM rotenone. After complete reduction of […] the respiratory chain was blocked with 25 mM malonate and reoxidation rate of “MitoQ” and “SkQ1” was measured. In order to examine whether the test compounds (SkQ1 and MitoQ) can be reduced by the respiratory chain of mitochondria, changes of the ratio between oxidized and reduced forms of test compounds were measured in the presence of respiratory substrates in a medium used for isolation of rat liver mitochondria. The measurements were carried out in the presence of mitochondria (protein concentration 0.2 mg/ml).

Hela cells [5] = experiment: Necrosis after photodynamic treatment (chloromethyl-X-rosamine, green light); assay type: cell-based, human
Method: Protection from photodynamic treatment was studied using cultured HeLa cells. Cells were incubated with photosensitizer chloromethyl-X-rosamine (0.5 μM, 15 min) which was then selectively accumulated within mitochondria. Cells were photoirradiated with green light (at maximum absorption for photosensitizer of […]) through the objective of microscope Axiovert 200M (Zeiss, Germany) for 1-2 min and analyzed 5 h later. Necrosis was determined by staining of nuclei with propidium iodide (2 μg/ml, 5 min).

[6] = Transfer across the planar bilayer phospholipid membrane; assay type: physicochemical; details: 50 mM TrisHCl pH 7.4; 10^−7 to 10^−5 M; distributes according to Nernst equation
Excerpt: The experimental method has been used several times before in the experiments aimed at the exploring of an ability of different ions to penetrate the planar bilayer lipid membrane and is described in details Liberman […]., 1969, Nature, 222, 1076-8. This method includes the use of two chambers filled in with water-based solution and separated by bilayer membrane, also the electrometrical registration of transfer of charged compounds capable of penetration across such membrane from one chamber to another. In our experiment the membrane was made of mixture of […] and diphytanoyl derivative of […] dissolved in decane; both chambers were filled with 50 mM TrisHCl, pH 7.4 containing 10^-7 M SkQ1.

OXYS rats = experiment: Cataract and macular dystrophy in senescence-accelerated OXYS rats; assay type: in vivo, rat
Method: The animals were housed in cages (45*35*35 cm) and kept under standard laboratory conditions (at 22±1° C., 60% relative humidity, and natural light), provided with a standard rodent diet (PK-120-1, Ltd. ‘Laboratorsnab’, Russia), and given water ad libitum. At the age of 1.5 months after preliminary pupil dilation with 1% tropicamide ophthalmic the rats were conducted through ophthalmoscopic examination using direct ophthalmoscop “Betta”, Germany. […] We use Vitamin E for a comparison with test antioxidants. Animals received the compounds on a small piece of dried bread before a regular meal, and the control group of animals received the same piece of bread without any compound. After completing the course of antioxidants the animals were retested with ophthalmoscope. To avoid human factor in the evaluation of compound effects the researcher who conducted the ophthalmoscopic examination was not told which of the animals received antioxidants. The lens state was evaluated according to the classification system accepted in clinical practice with grades ranging from 0 to 3: score 0—the lens is clear; score 1—spotted weak cloudiness; score 2—multiple spots of cloudiness and score 3—intense cloudiness of the lens core and nucleus.

[7] = tested on: Normal fibroblasts from the human skin and lung; experiment: Morphology and mobility of normal fibroblasts; assay type: cell-based; details: 20 nM for 6 days
Method: as §1

[8] = Light-dependent inactivation of gramicidin channel in model lipid membrane with phthalocyanine photosensitizer; assay type: biochemical; details: SkQ1 at 1 μM
Hela cells [9] = tested on: Hela cells
[10] = OXYS rats age 3 months after oral course

CC1=C(C)C(=O)C(CCCCCCCCCC[P+](c2ccccc2)(c2ccccc2)c2ccccc2)=CC1=O.[Br-] [SkQ1, 2,3-dimethyl-1,4-benzoquinon-5-decyl-triphenylphosphonium bromide]
oxidation rate in the presence of both air oxygen and superoxide radical relative to MitoQ ([1]; FIG. 3a): about two times higher | oxidation rate of quinol form by superoxide radical relative to MitoQ ([1]; oxidation by air oxygen subtracted, FIG. 3b): very much faster than MitoQ | apoptosis among cell population (human lung fibroblasts; 100 μM H2O2): 7±3% | apoptosis among cell population (human lung fibroblasts; 200 μM H2O2): 12±5% | PP change at the end of H2O2 introduction ([2]; prolonged consumption): −29±6 mmHg | maximal PP decline ([2]; prolonged consumption (2-week nutritional supplementation)): −38±5 mmHg | maximal PP decline versus initial level before H2O2 ([2]; single intravenous introduction): −43±5 mmHg | minimal perfusion pressure (PP) level ([2]; single intravenous introduction 50 μg/kg, heart isolated 2 hours later, 150 mcM H2O2): 77±2 mm Hg | amount of actin filaments (Hela cells [3]): increased | mean density of filaments (Hela cells [3]): not changed | mean area, times higher (Hela cells [3]; same treatment as fibroblasts): 2.6 times | concentration not suppressing mitochondrial respiration [4]: up to 10 μM | time compound retains intact under incubation conditions in biological media ([4]; whole experiment): at least tens of minutes | necrotic cell death (Hela cells [5]; 1 μM added 1 h before photoirradiation): 15±5% | necrosis from photodynamic treatment (Hela cells [5]; preincubated with 20 nM for 6 days): 25±5% | penetration of planar bilayer phospholipid membrane [6]: penetrates the planar bilayer phospholipid membrane | 2nd stage of cataract (OXYS rats; [10]): all of them were defined as the 1st stage of cataract | 2nd stage of macular degeneration (OXYS rats; [10]): also were defined as the 1st stage of macular degeneration | changes in the macular area of the retina (OXYS rats; [10]): 38% | eyes with lens changes (OXYS rats; OXYS rats age 3 months after oral course from 1.5 to 3 months): 46% | amount of actin filaments, times higher [7]: 3.7 times | dispersion index lowered by factor [7]: 2.4 | filament density in comparison to the control [7]: 136% | mean cell area, times higher than control [7]: 2.9 times | mobility of fibroblasts [7]: distinctly lower | rate of fibroblast proliferation [7]: no influence on the rate of fibroblast proliferation | elongation index ([7]; control 2.34): 0.69 | light-dependent inactivation of gramicidin [8]: completely prevents | LD50 in the presence of hydrogen peroxide (Hela cells [9]; 100 μM hydrogen peroxide): 20 µM | LD50 (concentrations at which 50% cells die) (Hela cells [9]; 2 h of incubation, no hydrogen peroxide): 20 µM
